Results as given in ChEMBL document CHEMBL1140392, “Cyclohexenyl- and dehydropiperidinyl-alkynyl pyridines as potent metabotropic glutamate subtype 5 (mGlu5) receptor antagonists” (Bioorg Med Chem Lett, 2005).

How the values were obtained:
Format in all cases: ADME, organism-based
[1] = Volume distribution upon i.v. administration at the dose of 2 mg/kg in rat; set-up: dose 2 mg/kg, route intravenous; settings: in vivo, iv
[2] = Bioavailability in rats when administered 10 mg/kg orally; settings: rat, in vivo, po, read-out: Bioavailabiility
[3] = Peak plasma concentration in rats when administered 10 mg/kg orally; set-up: dose 10 mg/kg, route oral; settings: rat, po
[4] = Clearance upon i.v. administration at the dose of 2 mg/kg in rat; set-up: dose 2 mg/kg, route intravenous; settings: in vivo, iv
[5] = Half life upon i.v. administration at the dose of 2 mg/kg in rat; set-up: dose 2 mg/kg, route intravenous; settings: in vivo, iv

| Vd ([1]; read-out: Vd) | bioavailability [2] | Cmax [3] | clearance [4] | half-life [5] | Vd [1] | Cl [4] | T1/2 [5] | Compound |
| --- | --- | --- | --- | --- | --- | --- | --- | --- |
| 3.98 L/kg | 10% | 20 nM | 64 mL/min/kg | 66 min | – | – | – | O=S(=O)(c1ccc(Br)cc1)N1CC=C(C#Cc2ccccn2)CC1 |
| 2.2 L/kg | – | – | 94 mL/min/kg | 18 min | – | – | – | C(#Cc1ccccn1)C1=CC(Oc2cccnc2)CCC1 (stereo not drawn) |
| 7.2 L/kg | – | – | 32 mL/min/kg | 288 min | – | – | – | Clc1cncc(OC2C=C(C#Cc3ccccn3)CCC2)c1 (stereo not drawn) |
| – | – | – | – | – | 14.7 L/kg | 29 mL/min/kg | 1.5 h | Cc1ccc(S(=O)(=O)N2CC=C(C#Cc3ccccn3)CC2)cc1 |
| 9.1 L/kg | – | – | 45 mL/min/kg | 234 min | – | – | – | C(#Cc1ccccn1)C1=CCCCC1 |
| 1.4 L/kg | – | – | 34 mL/min/kg | 30 min | – | – | – | C(#Cc1ccccn1)C1=CCC(Nc2cccnc2)CC1 (stereo not drawn) |
| 1.2 L/kg | – | – | 41 mL/min/kg | 48 min | – | – | – | C(#Cc1ccccn1)C1=CC(Oc2ccncc2)CCC1 (stereo not drawn) |
